Data published in patent publication US20150183822A1, “ANGIOTENSIN-CONVERTING-ENZYME INHIBITING DIPEPTIDE” (YAMAKI Co., Ltd., priority 2012, published 2015).
Like-named read-outs stand apart in the source and are kept apart here. Where a SMILES comes first, the peptide text is derived from it.

Biological target: T1, angiotensin converting enzyme (ACE) (Oryctolagus cuniculus, UniProt P12822)
T1 construct: resulting supernatant was purified with hydroxyapatite to obtain 1 unit/mg protein of angiotensin converting enzyme liquid; tissue Sigma Co., Ltd. (alternative source); host or cells: rabbit lung (acetone powder extract purified with hydroxyapatite)
T1 sequence (P12822 34-1310): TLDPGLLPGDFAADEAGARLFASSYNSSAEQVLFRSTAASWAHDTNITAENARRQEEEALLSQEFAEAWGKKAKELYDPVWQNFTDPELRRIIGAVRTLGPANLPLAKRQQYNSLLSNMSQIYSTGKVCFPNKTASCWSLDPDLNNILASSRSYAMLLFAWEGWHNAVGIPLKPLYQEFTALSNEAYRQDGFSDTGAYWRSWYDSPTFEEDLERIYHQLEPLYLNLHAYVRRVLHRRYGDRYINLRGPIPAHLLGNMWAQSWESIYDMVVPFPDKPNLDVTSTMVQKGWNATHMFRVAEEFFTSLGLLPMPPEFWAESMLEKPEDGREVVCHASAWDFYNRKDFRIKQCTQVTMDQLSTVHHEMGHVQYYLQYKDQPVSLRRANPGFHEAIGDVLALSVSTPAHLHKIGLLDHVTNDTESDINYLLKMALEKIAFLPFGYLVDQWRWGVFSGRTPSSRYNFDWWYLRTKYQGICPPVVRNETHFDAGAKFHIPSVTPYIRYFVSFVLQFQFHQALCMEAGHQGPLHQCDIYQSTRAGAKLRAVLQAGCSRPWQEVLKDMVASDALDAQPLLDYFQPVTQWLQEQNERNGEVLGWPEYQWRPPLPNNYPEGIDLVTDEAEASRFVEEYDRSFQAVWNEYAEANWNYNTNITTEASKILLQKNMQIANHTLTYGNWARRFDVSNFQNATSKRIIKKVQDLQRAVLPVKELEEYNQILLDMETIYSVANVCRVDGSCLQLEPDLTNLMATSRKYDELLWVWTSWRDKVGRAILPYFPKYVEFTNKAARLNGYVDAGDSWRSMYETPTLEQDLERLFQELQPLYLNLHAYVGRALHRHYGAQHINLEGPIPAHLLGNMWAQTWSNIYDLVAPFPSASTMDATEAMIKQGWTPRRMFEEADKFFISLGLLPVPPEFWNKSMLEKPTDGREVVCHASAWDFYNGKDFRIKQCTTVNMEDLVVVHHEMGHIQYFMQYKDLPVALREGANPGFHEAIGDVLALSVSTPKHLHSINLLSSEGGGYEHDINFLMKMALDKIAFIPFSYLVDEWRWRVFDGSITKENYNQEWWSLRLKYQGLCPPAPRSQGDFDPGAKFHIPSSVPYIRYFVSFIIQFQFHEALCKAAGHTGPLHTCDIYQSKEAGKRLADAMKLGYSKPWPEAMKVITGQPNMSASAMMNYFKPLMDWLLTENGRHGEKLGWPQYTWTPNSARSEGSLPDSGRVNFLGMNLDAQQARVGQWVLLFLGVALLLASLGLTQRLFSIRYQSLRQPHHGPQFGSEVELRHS
Assay: ACE inhibitory activity (Test Example 1, Cheung and Cushman's method, hippuryl histidyl leucine substrate)
Format: biochemical, rabbit
Conditions: for The contribution rate in KATSUOBUSHI peptide: contribution of each dipeptide in KATSUOBUSHI peptide; for ACE inhibitory activity value, comparison in words: comparison among dipeptides of Table 30
Description: ACE inhibitory activity was measured as below.
5 g of rabbit lung acetone powder was dissolved in 50 mL of 0.1M sodium borate buffer (pH8.3), centrifuged under the condition of 40000G and for 40 minutes and resulting supernatant was purified with hydroxyapatite to obtain 1 unit/mg protein of angiotensin converting enzyme liquid. Purified ACE derived from rabbit lung (Sigma Co., Ltd., 0.25 unit), alternatively, was used.
0.030 mL of the various concentrations of the dipeptide composition solutions were taken into test tubes, respectively, and then, 0.1 mL of the angiotensin converting enzyme liquid as above was added into the test tubes to react with the composition at 37° C. for 5 minutes. Subsequently, 0.25 mL of hippuryl histidyl leucine (PEPTIDE Lab., Bz-Gly-His-Leu.H2O, the final concentration of 5 mM, including 300 mM of NaCl) as a substrate was added to the test tubes to react with the enzyme at 37° C. for 30 minutes. 0.25 mL of 1N hydrochloric acid, then, was added to the test tube to terminate the reaction, 1.5 mL of ethyl acetate was added to the test tube and stirred with the vortex mixer for 20 seconds, followed by centrifuging (3000 rotations, for 5 minutes) and 1 mL of ethyl acetate layer was isolated.
The inhibitory rate was calculated according to the following formula.
The inhibitory=[1−(A−a)/(B−b)]×100

[1] = isolated peptides, Table 11, read-out: ACE inhibitory activity (IC50: μM)
[2] = Table 30, dipeptides of the invention and other dipeptides, read-out: ACE inhibitory value IC50
[3] = isolated peptides, Table 10, read-out: ACE inhibitory activity (IC50: μM)
[4] = isolated peptides, Table 9, read-out: ACE inhibitory activity (IC50: μM)

For `C[C@H](N)C(=O)N[C@@H](Cc1c[nH]c2ccccc12)C(=O)O` [Alanine-tryptophan, alanine-tryptophan] (H-Ala-Trp-OH; N-terminus and C-terminus assumed), the “contribution rate in KATSUOBUSHI peptide, in words” value (shortened to “contribution rate … in words”) was “high”, the “The contribution rate in KATSUOBUSHI peptide” value (from here on “The contribution rate”) was 0.672% and the IC50 [1] was 10 µM.
For `NC(=O)C[C@H](N)C(=O)N[C@@H](Cc1c[nH]c2ccccc12)C(=O)O` [Asparagine-tryptophan, asparagine-tryptophan] (H-Asn-Trp-OH; N-terminus and C-terminus assumed), the “The contribution rate” value was 0.099%.
With `NC(=O)CC[C@H](N)C(=O)N[C@@H](Cc1c[nH]c2ccccc12)C(=O)O` [Glutamine-tryptophan, glutamine-tryptophan] (H-Gln-Trp-OH; N-terminus and C-terminus assumed) the “The contribution rate” value was 0.048% and the IC50 [1] was 32.6 µM.
In the case of `NCC(=O)N[C@@H](Cc1c[nH]c2ccccc12)C(=O)O` [Glycine-tryptophan, glycine-tryptophan] (H-Gly-Trp-OH), the “The contribution rate” value is reported as 0.366% and the IC50 [1] is reported as 30 µM.
Molecule `CC[C@H](C)[C@H](N)C(=O)N[C@@H](Cc1ccccc1)C(=O)O` [Isoleucine-phenylalanine, reference compound] (H-Ile-Phe-OH; N-terminus and C-terminus assumed) has an IC50 [2] of 930 µM.
`CC[C@H](C)[C@H](N)C(=O)N[C@@H](Cc1c[nH]c2ccccc12)C(=O)O` [Isoleucine-tryptophan, isoleucine-tryptophan] was tested, and the “contribution rate … in words” value was “high”, the “ACE inhibitory activity value, comparison in words” value (“ACE inhibitory activity value” below) was “much higher value than the other dipeptides” and the “The contribution rate” value was 2.040%. The IC50 [3] was 2 µM.
For `CC(C)C[C@H](N)C(=O)N[C@@H](Cc1c[nH]c2ccccc12)C(=O)O` [Leucine-tryptophan, leucine-tryptophan], the IC50 [4] was 23 µM.
`CSCC[C@H](N)C(=O)N[C@@H](Cc1c[nH]c2ccccc12)C(=O)O` [Methionine-tryptophan, methionine-tryptophan] (H-Met-Trp-OH; N-terminus and C-terminus assumed) was tested, and the “ACE inhibitory activity value” value was “much higher value than the other dipeptides”, the “The contribution rate” value was 0.343% and the IC50 [3] was 3.8 µM.
With `N[C@@H](CO)C(=O)N[C@@H](Cc1c[nH]c2ccccc12)C(=O)O` [Serine-tryptophan, serine-tryptophan] (H-Ser-Trp-OH; N-terminus and C-terminus assumed) the “The contribution rate” value was 0.099% and the IC50 [1] was 22.1 µM.
For `NC(=O)C[C@H](NC(=O)[C@@H](N)Cc1c[nH]c2ccccc12)C(=O)O` [Tryptophan-asparagine, tryptophan-asparagine] (H-Trp-Asn-OH; N-terminus and C-terminus assumed), the IC50 [4] was 580 µM.
`CC[C@H](C)[C@H](NC(=O)[C@@H](N)Cc1c[nH]c2ccccc12)C(=O)O` [Tryptophan-isoleucine, tryptophan-isoleucine] (H-Trp-Ile-OH; N-terminus and C-terminus assumed) gave an IC50 [4] of 33.1 µM.
With `CC(C)C[C@H](NC(=O)[C@@H](N)Cc1c[nH]c2ccccc12)C(=O)O` [Tryptophan-leucine, tryptophan-leucine] (H-Trp-Leu-OH; N-terminus and C-terminus assumed) the IC50 [4] was 25.1 µM.
With `CSCC[C@H](NC(=O)[C@@H](N)Cc1c[nH]c2ccccc12)C(=O)O` [Tryptophan-methionine, tryptophan-methionine] (H-Trp-Met-OH) the “The contribution rate” value was 0.054% and the IC50 [3] was 36.5 µM.
With `N[C@@H](Cc1c[nH]c2ccccc12)C(=O)N[C@@H](Cc1ccc(O)cc1)C(=O)O` [Tryptophan-tyrosine, tryptophan-tyrosine] (H-Trp-Tyr-OH; N-terminus and C-terminus assumed) the “The contribution rate” value was 0.021% and the IC50 [3] was 57 µM.
`CC(C)[C@H](N)C(=O)N1CCC[C@H]1C(=O)O` [Valine-proline, reference compound] (H-Val-Pro-OH) gave an IC50 [2] of 420 µM.
In the case of `CC(C)[C@H](N)C(=O)N[C@@H](Cc1c[nH]c2ccccc12)C(=O)O` [Valine-tryptophan, valine-tryptophan] (H-Val-Trp-OH), the “contribution rate … in words” value is reported as “high”, the “ACE inhibitory activity value” value is reported as “much higher value than the other dipeptides” and the “The contribution rate” value is reported as 4.031%.
Work on `CC(C)[C@H](N)C(=O)N[C@@H](Cc1ccc(O)cc1)C(=O)O` [Valine-tyrosine, valine-tyrosine] (H-Val-Tyr-OH; N-terminus and C-terminus assumed) yielded an IC50 [4] of 11 µM.
